Literature values as cited in PMC11674187, “Inhibitory Effects of Cenobamate on Multiple Human Cardiac Ion Channels and Possible Arrhythmogenic Consequences” (Biomolecules, 2024).

Test system: persistent INa
Design: method as in ref [5] p. 8
Settings: other antiseizure drugs; ref [5] p. 8; cited from earlier work
In the case of `NC(=O)N1c2ccccc2C=Cc2ccccc21` [carbamazepine], the IC50 is given as 79.2 µM.
In the case of `Nc1nnc(-c2cccc(Cl)c2Cl)c(N)n1` [lamotrigine], the IC50 is given as 119 µM.
In the case of `Nc1nc2ccc(OC(F)(F)F)cc2s1` [riluzole], the IC50 is listed as 2 µM.

Target: Nav1.5 (Homo sapiens, UniProt Q14524)
Sequence (Q14524 whole entry): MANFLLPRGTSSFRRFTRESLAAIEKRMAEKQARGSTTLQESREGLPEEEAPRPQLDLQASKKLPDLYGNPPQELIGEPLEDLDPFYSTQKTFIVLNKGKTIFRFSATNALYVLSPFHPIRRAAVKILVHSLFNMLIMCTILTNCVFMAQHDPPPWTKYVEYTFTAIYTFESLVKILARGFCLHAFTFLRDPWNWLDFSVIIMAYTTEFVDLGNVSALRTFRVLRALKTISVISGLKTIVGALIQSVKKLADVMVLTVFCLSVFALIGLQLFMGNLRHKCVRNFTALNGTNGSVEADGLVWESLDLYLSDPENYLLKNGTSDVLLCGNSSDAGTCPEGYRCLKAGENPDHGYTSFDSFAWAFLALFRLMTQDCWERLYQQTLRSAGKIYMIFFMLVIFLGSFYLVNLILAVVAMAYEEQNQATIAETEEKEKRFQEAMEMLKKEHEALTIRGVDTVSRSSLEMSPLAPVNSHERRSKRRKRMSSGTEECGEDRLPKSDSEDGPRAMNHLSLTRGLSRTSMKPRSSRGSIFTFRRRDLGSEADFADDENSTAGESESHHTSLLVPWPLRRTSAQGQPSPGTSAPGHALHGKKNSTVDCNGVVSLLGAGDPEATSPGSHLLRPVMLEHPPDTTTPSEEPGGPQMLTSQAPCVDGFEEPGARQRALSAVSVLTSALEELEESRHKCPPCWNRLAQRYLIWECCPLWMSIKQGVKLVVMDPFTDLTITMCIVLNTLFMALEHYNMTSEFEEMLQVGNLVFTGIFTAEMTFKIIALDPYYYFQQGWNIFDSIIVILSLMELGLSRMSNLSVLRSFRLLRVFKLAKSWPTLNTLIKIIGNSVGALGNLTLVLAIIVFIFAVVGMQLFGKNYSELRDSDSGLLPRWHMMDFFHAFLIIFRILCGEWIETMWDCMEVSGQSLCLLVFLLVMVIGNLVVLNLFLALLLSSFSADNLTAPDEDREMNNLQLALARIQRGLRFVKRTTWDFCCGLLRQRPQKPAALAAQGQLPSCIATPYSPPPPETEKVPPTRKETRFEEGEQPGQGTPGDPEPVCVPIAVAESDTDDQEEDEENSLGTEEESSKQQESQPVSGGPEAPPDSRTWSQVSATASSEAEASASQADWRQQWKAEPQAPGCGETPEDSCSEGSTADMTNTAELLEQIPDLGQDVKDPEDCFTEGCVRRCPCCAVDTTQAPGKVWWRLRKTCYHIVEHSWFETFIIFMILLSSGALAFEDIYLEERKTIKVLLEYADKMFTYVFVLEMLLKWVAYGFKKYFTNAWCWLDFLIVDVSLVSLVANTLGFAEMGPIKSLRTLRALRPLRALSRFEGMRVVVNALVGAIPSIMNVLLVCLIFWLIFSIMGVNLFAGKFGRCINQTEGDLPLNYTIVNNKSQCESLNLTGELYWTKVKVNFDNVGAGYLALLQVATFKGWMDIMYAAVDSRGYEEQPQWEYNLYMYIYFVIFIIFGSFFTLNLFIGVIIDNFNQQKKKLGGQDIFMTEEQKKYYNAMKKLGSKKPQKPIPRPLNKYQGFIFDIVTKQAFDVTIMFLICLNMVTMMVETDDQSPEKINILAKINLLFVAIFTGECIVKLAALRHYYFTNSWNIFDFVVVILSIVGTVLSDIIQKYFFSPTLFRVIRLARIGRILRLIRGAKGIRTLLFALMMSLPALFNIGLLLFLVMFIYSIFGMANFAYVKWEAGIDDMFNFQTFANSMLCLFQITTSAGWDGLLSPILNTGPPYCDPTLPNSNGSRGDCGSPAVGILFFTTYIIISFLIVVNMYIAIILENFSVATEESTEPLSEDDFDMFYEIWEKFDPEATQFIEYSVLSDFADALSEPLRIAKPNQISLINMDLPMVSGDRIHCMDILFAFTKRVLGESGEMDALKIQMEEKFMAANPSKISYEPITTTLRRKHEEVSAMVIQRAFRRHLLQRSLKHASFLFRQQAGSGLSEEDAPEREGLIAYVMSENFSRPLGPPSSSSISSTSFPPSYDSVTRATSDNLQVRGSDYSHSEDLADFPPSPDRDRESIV
Design: method as in PMID 34785211, PMID 33620150
Settings: PT 35–37 °C vs. room temperature; ref [11],[40]; cited from earlier work
In the case of `CCN(CC)CCCC(C)Nc1ccnc2cc(Cl)ccc12` (stereo not shown) [chloroquine], the “change of apparent IC50 on peak Na+ current at physiological vs. room temperature” value is listed as “approximately four-fold reduction”.
In the case of `CCN(CCO)CCCC(C)Nc1ccnc2cc(Cl)ccc12` (stereo not shown) [hydroxychloroquine], the “change of apparent IC50 on peak Na+ current at physiological vs. room temperature” value is given as “more than a two-fold reduction”.

Test system: human ventricular cardiomyocyte electrophysiology model
Design: method as in ref [18] Dutta et al., 2017
Settings: 12-compound CiPA training set; ref [18] Dutta et al., 2017; cited from earlier work
In the case of `CC(C)COCC(CN(Cc1ccccc1)c1ccccc1)N1CCCC1` (stereo not shown) [bepridil], the “CiPA torsadogenic risk category” value is listed as “high risk”.
In the case of `CN(C)CCCN1c2ccccc2Sc2ccc(Cl)cc21` [chlorpromazine], the “CiPA torsadogenic risk category” value is given as “intermediate risk”.
For `COc1cc(N)c(Cl)cc1C(=O)NC1CCN(CCCOc2ccc(F)cc2)CC1OC` (stereo not shown) [cisapride], the “CiPA torsadogenic risk category” value is listed as “intermediate risk”.
For `CN(CCOc1ccc(NS(C)(=O)=O)cc1)CCc1ccc(NS(C)(=O)=O)cc1` [dofetilide], the “CiPA torsadogenic risk category” value is listed as “high risk”.
For `Cc1cccc(C)c1OCC(C)N` (stereo not shown) [mexiletine], the “CiPA torsadogenic risk category” value is listed as “low risk”.
In the case of `Cc1nccn1CC1CCc2c(c3ccccc3n2C)C1=O` (stereo not shown) [ondansetron], the “CiPA torsadogenic risk category” value is listed as “intermediate risk”.
In the case of `C=C[C@H]1C[N@@]2CC[C@H]1C[C@@H]2[C@@H](O)c1ccnc2ccc(OC)cc12` [quinidine], the “CiPA torsadogenic risk category” value is given as “high risk”.
In the case of `COc1ccccc1OCC(O)CN1CCN(CC(=O)Nc2c(C)cccc2C)CC1` (stereo not shown) [ranolazine], the “CiPA torsadogenic risk category” value is given as “low risk”.
